Results published in PubChem BioAssay (NCI).
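Interpolation was linear, between the two tested concentrations surrounding the appropriate level; five concentrations were tested over 48 hours in 96-well plates. GI50: concentration for 50% inhibition of growth. TGI: total growth inhibition.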

Legend:
Assay in all cases: growth of human tumour cells (NCI), 48 h
786-0 renal = test system: 786-0 renal
A498 renal = test system: A498 renal
A549 NSCLC = test system: A549 NSCLC
ACHN renal = test system: ACHN renal
BT-549 breast = test system: BT-549 breast
CAKI-1 renal = test system: CAKI-1 renal
CCRF-CEM leukemia = test system: CCRF-CEM leukemia
COLO 205 colon = test system: COLO 205 colon
DU-145 prostate = test system: DU-145 prostate
EKVX NSCLC = test system: EKVX NSCLC
HCC-2998 colon = test system: HCC-2998 colon
HCT-116 colon = test system: HCT-116 colon
HCT-15 colon = test system: HCT-15 colon
HL-60(TB) leukemia = test system: HL-60(TB) leukemia
HOP-62 NSCLC = test system: HOP-62 NSCLC
HOP-92 NSCLC = test system: HOP-92 NSCLC
HS 578T breast = test system: HS 578T breast
HT29 colon = test system: HT29 colon
IGROV1 ovarian = test system: IGROV1 ovarian
K-562 leukemia = test system: K-562 leukemia
KM12 colon = test system: KM12 colon
LOX IMVI melanoma = test system: LOX IMVI melanoma
M14 melanoma = test system: M14 melanoma
MALME-3M melanoma = test system: MALME-3M melanoma
MCF7 breast = test system: MCF7 breast
MDA-MB-231 breast = test system: MDA-MB-231 breast
MDA-MB-435 = test system: MDA-MB-435
MOLT-4 leukemia = test system: MOLT-4 leukemia
NCI-H226 lung = test system: NCI-H226 lung
NCI-H23 lung = test system: NCI-H23 lung
NCI-H460 lung = test system: NCI-H460 lung
NCI-H522 lung = test system: NCI-H522 lung
NCI/ADR-RES ovarian = test system: NCI/ADR-RES ovarian
OVCAR-3 ovarian = test system: OVCAR-3 ovarian
OVCAR-4 ovarian = test system: OVCAR-4 ovarian
OVCAR-5 ovarian = test system: OVCAR-5 ovarian
OVCAR-8 ovarian = test system: OVCAR-8 ovarian
PC-3 prostate = test system: PC-3 prostate
RPMI-8226 leukemia = test system: RPMI-8226 leukemia
RXF 393 renal = test system: RXF 393 renal
SF-268 CNS = test system: SF-268 CNS
SF-295 CNS = test system: SF-295 CNS
SF-539 CNS = test system: SF-539 CNS
SK-MEL-2 melanoma = test system: SK-MEL-2 melanoma
SK-MEL-28 melanoma = test system: SK-MEL-28 melanoma
SK-MEL-5 melanoma = test system: SK-MEL-5 melanoma
SK-OV-3 ovarian = test system: SK-OV-3 ovarian
SN12C renal = test system: SN12C renal
SNB-19 CNS = test system: SNB-19 CNS
SNB-75 CNS = test system: SNB-75 CNS
SR leukemia = test system: SR leukemia
SW-620 colon = test system: SW-620 colon
T-47D breast = test system: T-47D breast
TK-10 renal = test system: TK-10 renal
U251 CNS = test system: U251 CNS
UACC-257 melanoma = test system: UACC-257 melanoma
UACC-62 melanoma = test system: UACC-62 melanoma
UO-31 renal = test system: UO-31 renal

CCN1CCN(Cc2ccc3cc(C(=O)Nc4cc(NC(=O)c5ccc6c(c5)OCCO6)ccc4F)ccc3n2)CC1
GI50 (786-0 renal): 60.4 nM | TGI (786-0 renal): 13100 nM | GI50 (A498 renal): 15.9 nM | TGI (A498 renal): 265 nM | GI50 (A549 NSCLC): 51.1 nM | TGI (A549 NSCLC): 11600 nM | GI50 (ACHN renal): 27.4 nM | TGI (ACHN renal): 267 nM | GI50 (BT-549 breast): 146 nM | TGI (BT-549 breast): 7820 nM | GI50 (CAKI-1 renal): 18 nM | TGI (CAKI-1 renal): 103 nM | GI50 (CCRF-CEM leukemia): 118 nM | TGI (CCRF-CEM leukemia): 2540 nM | GI50 (COLO 205 colon): 55.3 nM | TGI (COLO 205 colon): 1510 nM | GI50 (DU-145 prostate): 37.1 nM | TGI (DU-145 prostate): 1180 nM | GI50 (EKVX NSCLC): 112 nM | TGI (EKVX NSCLC): 1790 nM | GI50 (HCC-2998 colon): 51.1 nM | TGI (HCC-2998 colon): 5730 nM | GI50 (HCT-116 colon): 35.4 nM | TGI (HCT-116 colon): 13000 nM | GI50 (HCT-15 colon): 37.6 nM | TGI (HCT-15 colon): 2250 nM | GI50 (HL-60(TB) leukemia): 23.8 nM | TGI (HL-60(TB) leukemia): 182 nM | GI50 (HOP-62 NSCLC): 61.7 nM | TGI (HOP-62 NSCLC): 12000 nM | GI50 (HOP-92 NSCLC): 55.5 nM | TGI (HOP-92 NSCLC): 557 nM | GI50 (HS 578T breast): 32.9 nM | TGI (HS 578T breast): 308 nM | GI50 (HT29 colon): 52.8 nM | TGI (HT29 colon): 11900 nM | GI50 (IGROV1 ovarian): 29.7 nM | TGI (IGROV1 ovarian): 848 nM | GI50 (K-562 leukemia): 50.5 nM | TGI (K-562 leukemia): 14500 nM | GI50 (KM12 colon): 78.6 nM | TGI (KM12 colon): 7630 nM | GI50 (LOX IMVI melanoma): 34.3 nM | TGI (LOX IMVI melanoma): 1430 nM | GI50 (M14 melanoma): 50.5 nM | TGI (M14 melanoma): 11800 nM | GI50 (MALME-3M melanoma): 39.4 nM | TGI (MALME-3M melanoma): 420 nM | GI50 (MCF7 breast): 183 nM | TGI (MCF7 breast): 6750 nM | GI50 (MDA-MB-231 breast): 33.2 nM | TGI (MDA-MB-231 breast): 569 nM | GI50 (MDA-MB-435): 60.8 nM | TGI (MDA-MB-435): 3420 nM | GI50 (MOLT-4 leukemia): 50.4 nM | TGI (MOLT-4 leukemia): 2230 nM | TGI (NCI-H226 lung): 3450 nM | GI50 (NCI-H23 lung): 121 nM | TGI (NCI-H23 lung): 5270 nM | GI50 (NCI-H460 lung): 37 nM | TGI (NCI-H460 lung): 563 nM | GI50 (NCI-H522 lung): 35.1 nM | TGI (NCI-H522 lung): 427 nM | GI50 (NCI/ADR-RES ovarian): 369 nM | TGI (NCI/ADR-RES ovarian): 9550 nM | GI50 (OVCAR-3 ovarian): 56.7 nM | TGI (OVCAR-3 ovarian): 766 nM | GI50 (OVCAR-4 ovarian): 77.2 nM | TGI (OVCAR-4 ovarian): 1910 nM | GI50 (OVCAR-5 ovarian): 85.8 nM | TGI (OVCAR-5 ovarian): 12500 nM | GI50 (OVCAR-8 ovarian): 57.1 nM | TGI (OVCAR-8 ovarian): 12500 nM | GI50 (PC-3 prostate): 59.3 nM | TGI (PC-3 prostate): 11600 nM | GI50 (RPMI-8226 leukemia): 40.3 nM | TGI (RPMI-8226 leukemia): 325 nM | GI50 (RXF 393 renal): 14.2 nM | TGI (RXF 393 renal): 72.9 nM | GI50 (SF-268 CNS): 74.2 nM | TGI (SF-268 CNS): 10000 nM | GI50 (SF-295 CNS): 47.5 nM | TGI (SF-295 CNS): 2920 nM | GI50 (SF-539 CNS): 82.4 nM | TGI (SF-539 CNS): 720 nM | GI50 (SK-MEL-2 melanoma): 29 nM | TGI (SK-MEL-2 melanoma): 118 nM | GI50 (SK-MEL-28 melanoma): 118 nM | TGI (SK-MEL-28 melanoma): 6750 nM | GI50 (SK-MEL-5 melanoma): 108 nM | TGI (SK-MEL-5 melanoma): 756 nM | GI50 (SK-OV-3 ovarian): 34.1 nM | TGI (SK-OV-3 ovarian): 1140 nM | GI50 (SN12C renal): 52.4 nM | TGI (SN12C renal): 1820 nM | GI50 (SNB-19 CNS): 165 nM | TGI (SNB-19 CNS): 11200 nM | GI50 (SNB-75 CNS): 17.8 nM | TGI (SNB-75 CNS): 456 nM | GI50 (SR leukemia): 44.3 nM | TGI (SR leukemia): 1480 nM | GI50 (SW-620 colon): 46.2 nM | TGI (SW-620 colon): 11000 nM | GI50 (T-47D breast): 45.1 nM | TGI (T-47D breast): 23000 nM | GI50 (TK-10 renal): 42.9 nM | TGI (TK-10 renal): 4290 nM | GI50 (U251 CNS): 46.4 nM | TGI (U251 CNS): 11400 nM | GI50 (UACC-257 melanoma): 133 nM | TGI (UACC-257 melanoma): 10500 nM | GI50 (UACC-62 melanoma): 57.5 nM | TGI (UACC-62 melanoma): 1190 nM | GI50 (UO-31 renal): 37.6 nM | TGI (UO-31 renal): 1130 nM
